The target in the test is T1, roGFP2 (Aequorea victoria, UniProt P42212, C48S/S65T/Q80R/S147C/Q204C).
T1 construct: gene GFP; redox-sensitive GFP mutant, His tag (pRSET-roGFP2), expressed in E. coli DH5alpha, Ni-NTA purified, DTT-reduced then desalted
The experiment in a line: […] nm excitation fluorescence ratio of isolated roGFP2, plate reader. The settings on record: 1 ppm menadione; DTT-reduced roGFP2 1.39 ug/mL; 75 mM HEPES pH 7.0, 140 mM NaCl; monitored 5 min; oxidation of roGFP2, not reversible binding.

With `CC1=CC(=O)c2ccccc2C1=O` [menadione, 2-methyl-1,4-naphtoquinone], the “% change of 400/490 nm ratio vs t = 0 at 1 ppm” value is listed as 9.1 to 29.4%.

The record behind these values is article PMC3231123, “A Bacterial Biosensor for Oxidative Stress Using the Constitutively Expressed Redox-Sensitive Protein roGFP2” (Sensors (Basel, Switzerland), 2010).
